Source: PubChem BioAssay (NCI)
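Five compound concentrations were applied to cells in 96-well plates for 48 hours; endpoints were derived by simple linear interpolation of the resulting dose-response curve. TGI is the concentration that stops growth completely.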

Assays:
Test in all cases: growth of human tumour cells (NCI), 48 h
[1] = system: A498 renal
[2] = system: HL-60(TB) leukemia
[3] = system: HOP-62 NSCLC
[4] = system: HOP-92 NSCLC
[5] = system: HS 578T breast
[6] = system: KM12 colon
[7] = system: LOX IMVI melanoma
[8] = system: M14 melanoma
[9] = system: MDA-MB-231 breast
[10] = system: MOLT-4 leukemia
[11] = system: NCI/ADR-RES ovarian
[12] = system: OVCAR-3 ovarian
[13] = system: OVCAR-8 ovarian
[14] = system: PC-3 prostate
[15] = system: RPMI-8226 leukemia
[16] = system: SK-MEL-28 melanoma
[17] = system: SNB-19 CNS
[18] = system: SNB-75 CNS
[19] = system: T-47D breast

COc1cccc2c(Nc3ccc(S(=O)(=O)NC(C)=O)cc3)c3ccc([N+](=O)[O-])cc3nc12
TGI [1]: > 100 µM
TGI [2]: > 100 µM
TGI [3]: > 100 µM
TGI [4]: > 100 µM
TGI [5]: > 100 µM
TGI [6]: > 35.3 µM
TGI [7]: > 100 µM
TGI [8]: > 100 µM
TGI [9]: 56.6 µM
TGI [10]: 80.5 µM
TGI [11]: > 100 µM
TGI [12]: > 90.4 µM
TGI [13]: > 100 µM
TGI [14]: > 100 µM
TGI [15]: > 100 µM
TGI [16]: > 79.5 µM
TGI [17]: > 100 µM
TGI [18]: > 100 µM
TGI [19]: > 100 µM

CC(=O)OCC1OC(N2C(C)=C(C(C)=O)C(c3ccco3)C(C#N)=C2S)C(OC(C)=O)C(OC(C)=O)C1OC(C)=O (stereo not drawn)
TGI [1]: > 100 µM
TGI [2]: > 100 µM
TGI [3]: > 100 µM
TGI [4]: > 100 µM
TGI [5]: > 100 µM
TGI [6]: > 100 µM
TGI [7]: > 100 µM
TGI [8]: > 100 µM
TGI [9]: > 100 µM
TGI [10]: > 100 µM
TGI [11]: > 100 µM
TGI [12]: > 100 µM
TGI [13]: > 100 µM
TGI [14]: > 100 µM
TGI [15]: > 100 µM
TGI [16]: > 100 µM
TGI [17]: > 100 µM
TGI [18]: > 100 µM
TGI [19]: > 100 µM

CN(C)C(=O)Nc1cc2c3c(c1)CCCN3CCC2
TGI [1]: > 10 µM
TGI [2]: > 10 µM
TGI [3]: > 10 µM
TGI [4]: > 10 µM
TGI [5]: > 10 µM
TGI [6]: > 10 µM
TGI [7]: > 10 µM
TGI [8]: > 10 µM
TGI [9]: > 10 µM
TGI [10]: > 10 µM
TGI [11]: > 10 µM
TGI [12]: > 10 µM
TGI [13]: > 10 µM
TGI [14]: > 10 µM
TGI [15]: > 10 µM
TGI [16]: > 10 µM
TGI [17]: > 10 µM
TGI [18]: > 10 µM
TGI [19]: > 10 µM

O=c1oc2ccccc2c(O)c1C(c1ccc(/C=C/c2ccccc2)cc1)c1c(O)c2ccccc2oc1=O
TGI [1]: > 100 µM
TGI [2]: > 100 µM
TGI [3]: 89.3 µM
TGI [4]: 53.5 µM
TGI [5]: 75.4 µM
TGI [6]: 64.4 µM
TGI [7]: 73.3 µM
TGI [9]: 67.9 µM
TGI [10]: 66.8 µM
TGI [11]: 60.3 µM
TGI [12]: > 100 µM
TGI [13]: 43.8 µM
TGI [14]: > 100 µM
TGI [15]: > 100 µM
TGI [16]: 86.9 µM
TGI [17]: > 100 µM
TGI [18]: 66.5 µM
TGI [19]: > 100 µM

CCC1=CC2Cc3nc4cc(Cl)ccc4c(N)c3C(C1)C2 (stereo not drawn)
TGI [1]: 17.3 µM
TGI [2]: 7.42 µM
TGI [3]: 22.5 µM
TGI [4]: 6.48 µM
TGI [5]: 13.1 µM
TGI [6]: 19.5 µM
TGI [7]: 19.2 µM
TGI [8]: 3.16 µM
TGI [9]: 18.9 µM
TGI [10]: 3.28 µM
TGI [11]: 27.6 µM
TGI [12]: 21.9 µM
TGI [13]: > 49.9 µM
TGI [14]: 18.4 µM
TGI [15]: 5.79 µM
TGI [16]: 7.5 µM
TGI [17]: 22.7 µM
TGI [18]: 18.5 µM
TGI [19]: 7.3 µM

COC1=C(N2CC2)C(=O)c2nc3n(c2C1=O)CCC3
TGI [1]: 2.86 µM
TGI [2]: 0.595 µM
TGI [3]: 2.34 µM
TGI [4]: 7.74 µM
TGI [5]: 31.3 µM
TGI [6]: 3.11 µM
TGI [7]: 2.15 µM
TGI [8]: 0.619 µM
TGI [9]: 6.28 µM
TGI [10]: 2.41 µM
TGI [11]: 3.53 µM
TGI [12]: 10.7 µM
TGI [13]: 4.7 µM
TGI [14]: 5.27 µM
TGI [15]: 0.336 µM
TGI [16]: 12.2 µM
TGI [17]: 2.92 µM
TGI [18]: 3.57 µM
TGI [19]: 4.15 µM
